Values belong to the compound of their own block, whether it stands above or below them.
Legend:
[1] = system: cerebellar granule neurons; assay: LK-induced apoptosis of cultured cerebellar granule neurons (MTT viability); assay type: cell-based, rat; conditions: for effect of MEK inhibitor on neuroprotection by GW5074: LK + 1 uM GW5074 with 40 uM PD98059 or 10 uM U0126
Procedure: Cultured cerebellar granule neurons undergo apoptosis when switched from HK to medium containing LK (D'Mello et al., 1993). […] Neuronal cultures were switched to medium containing LK, or LK medium containing different doses of GW5074. Cell viability was quantified 24 hours later. Control cultures received HK medium. […] Protection against LK-induced apoptosis is maximal at 1 uM.
Granule neuron cultures were obtained from dissociated cerebella of 7-8 day old rats as described previously (D'Mello et al., 1993). Cells were plated in Basal Eagle's Medium with Earles salts (BME) supplemented with 10% fetal bovine serum (FBS), 25 mM KCl, 2 mM glutamine (Gibco-BRL), and 100 ug/ml gentamycin on dishes coated with poly-L-lys ine in 24-well dishes at a density 1.0×10^6 cells/well, 1.2×10^7 cells/60 mm dish, or 3.0×10^7 cells/100 mm dish. Cytosine arabinofuranoside (10 uM) was added to the culture medium 18-22 hours after plating to prevent replication of non-neuronal cells. Cultures were maintained for 6-7 days prior to experimental treatments. For this, the cells were rinsed once and then maintained in low K^+ medium (serum-free BME medium, 5 mM KCl) or high K^+ medium (serum-free BME medium, supplemented with 20 mM KCl). When used to treat cultures, GW5074 was added at the time when cells were switched to LK medium. Treatment of cultures with pharmacological inhibitors was initiated 15 min prior to rinsing and was maintained through the subsequent incubation in LK or HK medium unless specified otherwise. For MPP+ and methylmercury treatments, 7-8 day old cultures were switched to HK medium containing 200 uM MPP+ or 0.5 uM methylmercury. Viability was assayed 24 hours later.
Neuronal survival was quantified by the MTT assay as previously described (Koulich et al., 2001). Briefly, the tetrazolium salt MTT [3-(4,5-dimethyl-2-thiazolyl)-2,5-diphenyl-2H tetrazolium bromide] was added to the cultures at a final concentration of 1 mg/ml, and incubation of the culture was continued in the CO2 incubator for a further 30 min at 37° C. The assay was stopped by adding lysis buffer [20% SDS in 50% N,N-dimethyl formamide, pH 4.7]. The absorbance was measured specrophotometrically at 570 nm after an overnight incubation at room temperature. The absorbance of a well without cells was used as background and subtracted. Results obtained using the MTT assays were confirmed using the fluorescein-diacetate method for quantification of cell viability, as previously described (D'Mello et al., 1993). Data are presented as mean+/−standard deviation. Statistical analysis was performed using ANOVA and Student-Neuman-Keuls' test.

C-Raf = molecular target: T1, C-Raf (Rattus norvegicus, UniProt P11345); assay: Activity of C-Raf immunoprecipitated from neuronal lysates, GST-MEK substrate, phospho-MEK Western; assay type: cell-based
T1 construct: Activities of endogenous C-Raf and B-Raf activity was assayed by measuring the ability of kinase immunoprecipitated from neuronal lysates; endogenous in cells; host or cells: primary rat cerebellar granule neurons
Procedure: The immunoprecipitated C-Raf was used in in vitro kinase assays using GST-MEK as substrate and the reaction products subjected to Western analysis. Phosphorylation of MEK was detected using a phospho-MEK antibody. […] After 1 hour of treatment, the cultures were lysed, C-Raf immunoprecipitated from the lysate and used in an in vitro kinase assay with MEK as substrate. The reaction mixture was subjected to Western analysis using a phospho-MEK antibody as probe.
(Hall-Jackson et al., 1999). […] Lysates from the cultures were used in a kinase reaction with MEK as substrate. […] Phosphorylation of MEK was detected by Western blot analysis using an phospho-MEK antibody and the same blot was reprobed with a C-Raf antibody.
After treatment, cultures of 7-8-day old neurons were washed twice with ice-cold PBS and lysed in ice cold lysis buffer. The lysates were centrifuged for 10 min at 10,000 rpm at 4° C. Protein concentrations of the supernatant were measured using a Bradford protein assay kit (Bio-Rad), and equivalent amounts of protein were incubated overnight with primary antibody (1.0-2 ug) and then for 2 h with 20 ul Protein A/G PLUS-Agarose (Santa Cruz Biotech.) Immunoprecipitates were collected by centrifugation at 2,500 rpm for 5 min at 4° C. and washed three times with lysis buffer, and pellets resuspended in electrophoresis sample buffer (187.5 mM Tris-HCl (pH 6.8 at 25° C.), 6% SDS, 30% glycerol, 150 mM DTT, 0.03% bromophenol blue), boiled for 4 min and subjected to SDS-polyacrylamide gel electrophoresis.
Activities of endogenous C-Raf and B-Raf activity was assayed by measuring the ability of kinase immunoprecipitated from neuronal lysates to phosphorylate a kinase-dead recombinant GST-MEK1 substrate. Following immunoprecipitation and multiple washes with lysis buffer, lysis buffer supplemented with 350 mM NaCl, and kinase buffer (25 mM HEPES pH 7.4 and 10 mM MgCl2), in vitro kinase assays are performed on the immune complexes using purified recombinant GST-MEK1 K97M protein as a substrate in kinase buffer supplemented with 85 μM ATP for 35 minutes at 30° C. Reactions are stopped by the addition of 3×SDS sample buffer and boiled for five minutes. Proteins are resolved by SDS-PAGE and subjected to Western blotting. The level of phosphorylated MEK is detected by a phospho-MEK antibody.

Akt = Akt phosphorylation (Ser473) in neuronal cultures, Western blot; assay type: cell-based, rat; conditions: added to cultures already switched to LK
Procedure: The best-studied anti-apoptotic pathway in neurons is the PI-3 kinase—Akt signaling pathway (D'Mello et al., 1997; Dudek et al., 1997; Miller et al, 1997a). IGF-1, a potent survival-promotic factor for granule neurons mediates its effect by activating the PI-3 kinase-Akt pathway (Datta et al., 1997; Dudek et al., 1997; D'Mello et al., 1998). […] Switching cerebellar granule neurons from serum-containing HK medium in which they are cultured and allowed to mature, to serum-free LK or HK medium, causes a rapid downregulation of Akt phosphorylation and activity, which can be prevented by IGF-1 (Kumari et al., 2001). […] The same blot was reprobed with an antibody against phospho-Gskβ. Also loaded on the gel were lysates from untreated cultures (maintained in medium containing serum and high K+) and a culture treated for 1 hour with 25 ng/ml IGF-1. […] GSK3βis a proapoptotic molecule that is activated during apoptosis in many neuronal and normeuronal systems. Under survival promoting conditions GSK3β is kept inactivated by phosphorylation, a modification that can be induced by Akt. […] Another proapoptotic molecule that is phosphorylated and inactivated by Akt is the transcription factor, Forkhead (Linseman et al., 2002). […] Switching of neurons to LK medium leads to a rapid downregulation of Akt activity within 2 hours.
(§1) For whole-cell lysates, the culture medium was discarded, the neurons washed twice with ice-cold phosphate-buffered saline (PBS), and lysed in lysis buffer (1% Triton, 20 mM Tris-HCl (pH 7.5), 150 mM NaCl, 1 mM Na2EDTA, 1 mM EGTA, 2.5 mM sodium pyrophosphate, 1 mM beta-glycerophosphate, 1 mM Na3VO4, 1 μg/ml leupeptin and 1× protease inhibitor mixture). Protein concentrations were measured using a Bradford protein assay kit (Bio-Rad), and equivalent amounts of protein were mixed with 6×SDS-PAGE sample buffer. […] After staining with Ponceau S to verify uniformity of protein loads/transfer, the membranes were analyzed for immunoreactivity. […]

[2] = system: cerebellar granule neurons; assay: Apoptosis of neurons infected with adenoviral dominant-negative Akt; assay type: cell-based, rat; conditions: LK + 1 uM GW5074 or 25 ng/ml IGF-1
Excerpt: Five day old neuronal cultures were infected with adenoviral vectors expressing either GFP or hemagluttinin (HA)-tagged dominant-negative Akt. […] Infected neurons were detected by positive staining for GFP or HA by immunocytochemistry. The proportion of apoptotic cells (condensed or fragmented nuclei) as a percentage of total infected neurons was quantified following DAPI-staining.
DnAkt and control recombinant adenovirus expressing green fluorescent protein (Ad-GFP) are propagated in HEK293T cells and purified by cesium chloride density gradient centrifugation. After quantification of titer, virus at an MOI of 10 are used to infect granule neuron cultures 5 days after plating by direct addition to the medium. Treatments are performed 24 hours after addition of virus.

ERK 1/2 = ERK 1/2 phosphorylation in neuronal cultures, Western blot; assay type: cell-based, rat; conditions: LK + 1 uM GW5074 + 40 uM PD98059, 1 hour
Excerpt: Activation of all three Raf proteins results in activation of MEK and ERK.
Survival of cerebellar granule neurons can be maintained by BDNF and this effect of BDNF is mediated by the Raf-MEK-ERK signaling pathway (Bonni et al., 1999). The Raf-MEK-ERK pathway is also involved in promoting survival of other neuronal and normeuronal cell types. A potent blocker of the Raf-MEK-ERK pathway is PD98059 (Alessi et al., 1995). In paradigms in which the Raf-MEK-ERK pathway mediates neuronal survival, such as BDNF-treated cerebellar granule neurons, the presence of […] blocks survival (Bonni et al., 1999). […] Lysates from the cultures were subjected to Western blotting using an antibody specific for phospho-ERK.
as §1

T1 sequence (P11345 whole entry): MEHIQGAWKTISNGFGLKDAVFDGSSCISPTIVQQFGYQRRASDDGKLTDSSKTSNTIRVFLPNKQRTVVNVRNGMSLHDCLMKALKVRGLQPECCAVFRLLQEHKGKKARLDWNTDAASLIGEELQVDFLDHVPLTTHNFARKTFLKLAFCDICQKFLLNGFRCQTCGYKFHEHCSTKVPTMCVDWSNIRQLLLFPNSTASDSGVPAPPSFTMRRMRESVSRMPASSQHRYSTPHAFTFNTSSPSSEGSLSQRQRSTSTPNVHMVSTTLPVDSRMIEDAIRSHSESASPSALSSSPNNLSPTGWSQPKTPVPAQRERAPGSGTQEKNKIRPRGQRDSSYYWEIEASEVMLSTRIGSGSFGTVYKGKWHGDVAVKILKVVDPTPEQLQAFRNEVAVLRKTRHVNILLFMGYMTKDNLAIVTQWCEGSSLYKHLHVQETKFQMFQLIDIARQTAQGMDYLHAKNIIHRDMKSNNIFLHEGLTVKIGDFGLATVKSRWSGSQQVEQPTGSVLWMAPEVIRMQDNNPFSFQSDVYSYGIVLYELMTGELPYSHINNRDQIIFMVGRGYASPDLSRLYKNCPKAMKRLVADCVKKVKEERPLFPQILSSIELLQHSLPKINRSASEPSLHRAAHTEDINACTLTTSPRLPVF

effect on immunoprecipitated C-Raf when added in vitro (C-Raf; 10 uM ZM336372 added to kinase reaction mixture): inhibited in vitro by ZM336372
activity of C-Raf immunoprecipitated from treated cultures (C-Raf; LK + 50 uM ZM336372, 1 hour): elevated activity
Compound: Cc1ccc(NC(=O)c2cccc(N(C)C)c2)cc1NC(=O)c1ccc(O)cc1 [ZM336372, N-[5-(3-Dimethylaminobenzamido)-2-methylphenyl]-4-hydroxybenzamide, reference compound]
inhibition of LK-mediated apoptosis ([1]; LK medium containing 100 uM ZM336372): inhibits LK-mediated apoptosis

Compound: IGF-1: a potent survival-promotic factor for granule neurons
de novo Akt activation after downregulation in LK (Akt): robust increase in Akt phosphorylation
effect of dominant-negative Akt on survival promotion [2]: reduces the survival-promoting effect of IGF-1

Compound: COc1cccc(-c2cc(=O)c3ccccc3o2)c1N [PD98059, reference compound]
effect of MEK inhibitor on neuroprotection by GW5074 [1]: no effect on the neuroprotective effect of GW5074
effect on stimulation of ERK by GW5074 (ERK 1/2): blocks the stimulation of ERK by GW5074

Compound: CC(C)=CCC/C(C)=C/CC/C(C)=C/CSc1ccccc1C(=O)O [FTS, S-trans, trans-farnesylthiosalicylic acid]
effect of Ras antagonist on neuroprotection by GW5074 ([1]; LK + 1 uM GW5074 + 10 uM FTS, 24 hour): blocks the neuroprotective effect of GW5074

Compound: N#CC(=C(/N)Sc1ccccc1N)/C(C#N)=C(\N)Sc1ccccc1N [U0126]
effect of MEK inhibitor on neuroprotection by GW5074 [1]: failed to reduce survival by GW5074

Reference: patent US20050250837A1, “Use of C-Raf inhibitors for the treatment of neurodegenerative diseases” (priority 2002, published 2005)
